Results as given in the supplement of paper PMC10307832.

Legend:
Experiment in all cases: relative viability (nuclei count vs DMSO), 5 days (fraction); higher = more cells survive
SGI-1776 + Lapatinib = compound: CN1CCC(CNc2ccc3ncc(-c4cccc(OC(F)(F)F)c4)n3n2)CC1 [SGI-1776] + CS(=O)(=O)CCNCc1ccc(-c2ccc3ncnc(Nc4ccc(OCc5cccc(F)c5)c(Cl)c4)c3c2)o1 [Lapatinib] (partner 2 µM)
Summary of the method: (§1)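 Lung cancer cell lines were seeded in 1536-well plates and dosed by pin tool the next day, with either a single drug or a fixed anchor-drug dose combined with five library-drug doses (not always all listed) spaced in √10 steps. Five days later, one step fixed the cells and stained their nuclei (final 0.05% Triton X-100, 1% formaldehyde, 1 ug/ml Hoechst), and nuclei were counted on 4× images. Relative viability is the nuclei count in treated wells divided by the count in vehicle wells, and each value is the median of duplicate plates.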

SGI-1776 + Crizotinib = compound: CN1CCC(CNc2ccc3ncc(-c4cccc(OC(F)(F)F)c4)n3n2)CC1 [SGI-1776] + C[C@@H](Oc1cc(-c2cnn(C3CCNCC3)c2)cnc1N)c1c(Cl)ccc(F)c1Cl [Crizotinib] (partner 1 µM)
Summary of the method: as §1

Entinostat + Dasatinib = compound: Nc1ccccc1NC(=O)c1ccc(CNC(=O)OCc2cccnc2)cc1 [Entinostat] + Cc1nc(Nc2ncc(C(=O)Nc3c(C)cccc3Cl)s2)cc(N2CCN(CCO)CC2)n1 [Dasatinib] (partner 0.075 µM)
Summary of the method: as §1

Cell Line	relative viability (SGI-1776 + Lapatinib; first compound 0.08 µM)	relative viability (SGI-1776 + Lapatinib; first compound 0.8 µM)	relative viability (SGI-1776 + Lapatinib; first compound 2.53 µM)	relative viability (SGI-1776 + Lapatinib; first compound 8 µM)	relative viability (SGI-1776 + Crizotinib; first compound 0.08 µM)	relative viability (SGI-1776 + Crizotinib; first compound 0.8 µM)	relative viability (SGI-1776 + Crizotinib; first compound 2.53 µM)	relative viability (SGI-1776 + Crizotinib; first compound 8 µM)	relative viability (Entinostat + Dasatinib; first compound 0.02 µM)	relative viability (Entinostat + Dasatinib; first compound 0.06325 µM)	relative viability (Entinostat + Dasatinib; first compound 0.2 µM)	relative viability (Entinostat + Dasatinib; first compound 0.6325 µM)	relative viability (Entinostat + Dasatinib; first compound 2 µM)
NCI-H727	0.933	1.1	0.826	0.793	0.831	0.79	0.863	0.48	0.475	0.419	0.412	0.219	0.273
NCI-H1755	0.995	1.09	0.967	0.788	0.863	0.898	0.89	0.808	0.431	0.503	0.445	0.28	0.218
NCI-H1651	0.822	0.871	0.76	0.709	0.866	0.834	0.814	0.879	0.447	0.527	0.402	0.338	0.192
NCI-H647	1.17	0.915	1.01	0.601	1.16	0.842	0.992	0.291	0.197	0.133	0.144	0.0844	0.064
NCI-H1944	0.81	0.727	0.915	0.601	1.1	0.956	1.03	0.867	0.226	0.205	0.199	0.17	0.175
LK-2	1.13	1.06	0.781	0.75	0.228	0.228	0.258	0.25	0.292	0.389	0.388	0.286	0.301
HCC-15	0.821	0.882	0.933	0.786	0.819	0.816	0.761	0.764	0.664	0.749	0.595	0.33	0.178
NCI-H838	0.96	1.22	0.942	0.564	0.885	0.854	0.689	0.319	0.424	0.324	0.455	0.469	0.258
HOP-62	1.19	0.954	1.16	0.928	0.998	0.854	0.839	0.969	0.718	0.682	0.588	0.29	0.161
NCI-H322M	0.56	0.603	0.539	0.569	0.998	0.824	1.01	0.664	0.271	0.274	0.275	0.298	0.313
NCI-H650	0.99	0.955	0.747	0.795	0.764	0.704	0.382	0.37	0.496	0.498	0.455	0.357	0.26
NCI-H661	0.509	0.533	0.646	0.439	0.932	1.02	1.03	0.964	1.04	0.967	1.03	0.771	0.372
NCI-H1734	1.13	1.05	1.11	0.938	0.658	0.686	0.617	0.402	0.486	0.585	0.578	0.476	0.403
EKVX	0.225	0.205	0.209	0.166	0.847	1.01	0.977	0.882	0.656	0.51	0.492	0.435	0.343
NCI-H520	1.05	0.91	0.756	0.628	0.773	0.828	0.728	0.473	0.248	0.335	0.238	0.325	0.286
LOU-NH91	0.818	0.824	0.75	0.588	0.776	0.747	0.693	0.593	0.565	0.607	0.574	0.566	0.509
COR-L23	1.1	0.9	0.914	0.922	0.821	0.491	0.519	0.495	0.45	0.444	0.398	0.22	0.112

Cell Line	relative viability (SGI-1776 + Lapatinib; first compound 0.08 µM)	relative viability (SGI-1776 + Lapatinib; first compound 0.8 µM)	relative viability (SGI-1776 + Lapatinib; first compound 2.53 µM)	relative viability (SGI-1776 + Lapatinib; first compound 8 µM)	relative viability (SGI-1776 + Crizotinib; first compound 0.08 µM)	relative viability (SGI-1776 + Crizotinib; first compound 0.8 µM)	relative viability (SGI-1776 + Crizotinib; first compound 2.53 µM)	relative viability (SGI-1776 + Crizotinib; first compound 8 µM)	relative viability (Entinostat + Dasatinib; first compound 0.02 µM)	relative viability (Entinostat + Dasatinib; first compound 0.06325 µM)	relative viability (Entinostat + Dasatinib; first compound 0.2 µM)	relative viability (Entinostat + Dasatinib; first compound 0.6325 µM)	relative viability (Entinostat + Dasatinib; first compound 2 µM)
NCI-H1437	0.81	0.918	0.806	0.664	0.869	0.9	1.02	0.952	0.434	0.423	0.188	0.137	0.126
EPLC-272H	1.04	0.889	1.1	0.771	0.832	0.891	0.909	0.772	0.364	0.417	0.289	0.195	0.2
NCI-H1666	0.645	0.765	0.581	0.35	1.08	0.934	0.803	0.668	0.751	0.781	0.833	0.595	0.455
RERF-LC-KJ	0.867	0.868	0.728	0.795	0.886	0.786	0.836	0.865	0.82	0.656	0.731	0.374	0.237
LU99A	1.03	1.16	1.07	0.902	0.621	0.529	0.549	0.288	0.529	0.577	0.451	0.477	0.439
PC-3 [JPC-3]	0.441	0.466	0.478	0.371	0.978	1.05	0.981	0.904	1.07	0.87	0.95	0.666	0.405
NCI-H2126	0.72	0.742	0.772	0.71	1.01	1.04	1.08	0.968	0.615	0.545	0.443	0.349	0.268
LXF-289	0.945	0.941	0.893	0.895	0.803	0.805	0.813	0.786	0.209	0.261	0.177	0.178	0.185
BEN	0.695	0.739	0.705	0.532	0.799	0.851	0.844	0.628	0.318	0.341	0.308	0.264	0.179
SW 1573	1.29	1.09	1.15	1.06	0.904	0.835	0.624	0.395	0.532	0.518	0.711	0.627	0.454
NCI-H1993	0.839	0.958	0.841	0.636	0.917	0.894	0.858	0.725	0.747	0.591	0.535	0.496	0.259
SK-LU-1	0.861	1.03	0.782	0.667	1.04	0.833	0.756	0.352	0.186	0.237	0.186	0.199	0.147
NCI-H460	1.16	0.978	1.13	0.863	0.973	0.573	0.471	0.0428	0.52	0.548	0.235	0.0904	0.0466
LCLC-97TM1	1	0.79	1.14	0.95	0.383	0.384	0.342	0.198	0.882	0.646	0.748	0.782	0.615
HCC-78	0.848	0.7	0.783	0.698	0.352	0.311	0.346	0.318	0.432	0.39	0.316	0.277	0.291
NCI-H1975	0.922	0.928	0.899	0.838	0.999	0.833	0.771	0.441	0.352	0.307	0.316	0.199	0.134
